According to US8987250B2 (Gilead Sciences, Inc., priority 2012, dated 2015):

These compounds were tested on HIV-IIIb (assay: Test A: Antiviral Assay in MT4 Cells). Details: Human immunodeficiency virus 1, IIIB, MT4, 120 h, Table 2; MT-4 cells infected with HIV-IIIb, 5 days of incubation, CellTiter-Glo; read-out: EC50.
Format: cell-based
In short: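 Read-out: CellTiter-Glo chemiluminescence after 5-day incubation at 37 °C. Compounds tested as 3-fold serial dilutions (10 concentrations, quadruplicate) in RPMI 1640 with 10% FBS, on MT-4 cells pre-infected at 37 °C with HIV-IIIb at 0.004 m.o.i.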
`Cc1cc2nc(-c3ccnc(-c4cnc5ncn(C)c5c4)c3)sc2c(-c2ccc(Cl)cc2)c1[C@H](OC(C)(C)C)C(=O)O` [Compound 406] showed an EC50 of 149 nM. `Cc1cc2nc(-c3ccnc(-c4ccc5c(c4)nnn5C)c3)sc2c(-c2ccc(Cl)cc2)c1[C@H](OC(C)(C)C)C(=O)O` [Compound 407] gave an EC50 of 14 nM. For `Cc1cc2nc(-c3ccnc(-c4cnn(C(C)(C)C)c4)c3)sc2c(-c2ccc(Cl)cc2)c1[C@H](OC(C)(C)C)C(=O)O` [Compound 408], the EC50 was 27 nM. `Cc1cc2nc(-c3ccc4c(c3)nc(C)n4C3CC3)sc2c(-c2ccc(Cl)cc2)c1[C@H](OC(C)(C)C)C(=O)O` [Compound 409] was tested, and the EC50 was 10 nM. For `Cc1cc2nc(-c3ccc4c(c3)nc(C)n4C(C)C)sc2c(-c2ccc(Cl)cc2)c1[C@H](OC(C)(C)C)C(=O)O` [Compound 410], the EC50 was 9 nM. `Cc1cc2nc(-c3ccc4c(c3)nc(C(C)C)n4C)sc2c(-c2ccc(Cl)cc2)c1[C@H](OC(C)(C)C)C(=O)O` [Compound 411] was tested, and the EC50 was 8 nM. For `Cc1cc2nc(-c3ccc4nc(C)n(C5CCOCC5)c4c3)sc2c(-c2ccc(Cl)cc2)c1[C@H](OC(C)(C)C)C(=O)O` [Compound 412], the EC50 was 16 nM. Work on `Cc1cc2nc(-c3ccc4nc(C)n(C5CCN(C)CC5)c4c3)sc2c(-c2ccc(Cl)cc2)c1[C@H](OC(C)(C)C)C(=O)O` [Compound 413] yielded an EC50 of 33 nM. `Cc1cc2nc(-c3ccc4ncn(C5CCN(C)CC5)c4c3)sc2c(-c2ccc(Cl)cc2)c1[C@H](OC(C)(C)C)C(=O)O` [Compound 414] gave an EC50 of 32 nM. For `Cc1cc2nc(-c3ccc4c(c3)ncn4C)sc2c(-c2ccc(Cl)cc2)c1[C@H](OC(C)(C)C)C(=O)O` [Compound 415], the EC50 was 10 nM. `Cc1cc2nn(C)cc2cc1-c1cc(-c2nc3cc(C)c([C@H](OC(C)(C)C)C(=O)O)c(-c4ccc(Cl)cc4)c3s2)ccn1` [Compound 416] gave an EC50 of 25 nM. With `Cc1cc2nc(-c3ccnc(-c4ccc5c(cnn5C)c4C)c3)sc2c(-c2ccc(Cl)cc2)c1[C@H](OC(C)(C)C)C(=O)O` [Compound 417] the EC50 was 18 nM. `Cc1cc2nc(-c3ccnc(-c4ccc5nn(C)cc5c4C)c3)sc2c(-c2ccc(Cl)cc2)c1[C@H](OC(C)(C)C)C(=O)O` [Compound 418] was tested, and the EC50 was 11 nM. For `Cc1cc2c(cnn2C)cc1-c1cc(-c2nc3cc(C)c([C@H](OC(C)(C)C)C(=O)O)c(-c4ccc(Cl)cc4)c3s2)ccn1` [Compound 419], the EC50 was 13 nM. Compound `Cc1cc2[nH]ncc2cc1-c1cc(-c2nc3cc(C)c([C@H](OC(C)(C)C)C(=O)O)c(-c4ccc(Cl)cc4)c3s2)ccn1` [Compound 420] has an EC50 of 14 nM. `Cc1cc2nc(-c3ccnc(-c4ccc5[nH]ncc5c4C)c3)sc2c(-c2ccc(Cl)cc2)c1[C@H](OC(C)(C)C)C(=O)O` [Compound 421] gave an EC50 of 20 nM. Compound `Cc1cc2nc(-c3ccnc(-c4cc(C)c5[nH]ncc5c4)c3)sc2c(-c2ccc(Cl)cc2)c1[C@H](OC(C)(C)C)C(=O)O` [Compound 422] has an EC50 of 32 nM. Compound `Cc1cc2nc(-c3ccc4cnccc4c3)sc2c(-c2ccc(Cl)cc2)c1[C@H](OC(C)(C)C)C(=O)O` [Compound 427] has an EC50 of 14 nM. Compound `Cc1cc2nc(-c3ccc4c(c3)c(-c3cnccn3)nn4C)sc2c(-c2ccc(Cl)cc2)c1[C@H](OC(C)(C)C)C(=O)O` [Compound 428] has an EC50 of 7 nM. With `Cc1cc2nc(-c3ccc4scnc4c3)sc2c(-c2ccc(Cl)cc2)c1[C@H](OC(C)(C)C)C(=O)O` [Compound 429] the EC50 was 43 nM. With `Cc1cc2nc(-c3ccc4cnn(C)c4c3)sc2c(-c2ccc(Cl)cc2)c1[C@H](OC(C)(C)C)C(=O)O` [Compound 430] the EC50 was 29 nM. Compound `Cc1cc2nc(N3Cc4cccnc4C3)sc2c(-c2ccc(Cl)cc2)c1[C@H](OC(C)(C)C)C(=O)O` [Compound 431] has an EC50 of 18 nM. With `Cc1cc2nc(N3Cc4ccncc4C3)sc2c(-c2ccc(Cl)cc2)c1[C@H](OC(C)(C)C)C(=O)O` [Compound 432] the EC50 was 18 nM. Compound `Cc1cc2nc(N3CCc4cccnc4C3)sc2c(-c2ccc(Cl)cc2)c1[C@H](OC(C)(C)C)C(=O)O` [Compound 433] has an EC50 of 38 nM. Work on `Cc1cc2nc(N3CCc4ccncc4C3)sc2c(-c2ccc(Cl)cc2)c1[C@H](OC(C)(C)C)C(=O)O` [Compound 434] yielded an EC50 of 42 nM. Work on `Cc1cc2nc(N3CCc4cnccc4C3)sc2c(-c2ccc(Cl)cc2)c1[C@H](OC(C)(C)C)C(=O)O` [Compound 435] yielded an EC50 of 39 nM. In the case of `Cc1cc2nc(N3Cc4ccccc4C(F)(F)C3)sc2c(-c2ccc(Cl)cc2)c1[C@H](OC(C)(C)C)C(=O)O` [Compound 436], the EC50 is reported as 67 nM. Compound `Cc1cc2nc(N3CC[C@@H]4CCCC[C@@H]4C3)sc2c(-c2ccc(Cl)cc2)c1[C@H](OC(C)(C)C)C(=O)O` [Compound 437] has an EC50 of 309 nM. Work on `Cc1cc2nc(N3CC[C@H]4CCCC[C@@H]4C3)sc2c(-c2ccc(Cl)cc2)c1[C@H](OC(C)(C)C)C(=O)O` [Compound 438] yielded an EC50 of 258 nM. Compound `Cc1cc2nc(N3Cc4ccccc4C3)sc2c(-c2ccc(Cl)cc2)c1[C@H](OC(C)(C)C)C(=O)O` [Compound 439] has an EC50 of 20 nM. Compound `Cc1cc2nc(N3CCc4nn(C)c(C)c4C3)sc2c(-c2ccc(Cl)cc2)c1[C@H](OC(C)(C)C)C(=O)O` [Compound 440] has an EC50 of 11 nM. `Cc1cc2nc(N3CCc4c(c(C)nn4C)C3)sc2c(-c2ccc(Cl)cc2)c1[C@H](OC(C)(C)C)C(=O)O` [Compound 441] showed an EC50 of 4 nM. With `Cc1cc2nc(N3CCn4c(C)nnc4C3)sc2c(-c2ccc(Cl)cc2)c1[C@H](OC(C)(C)C)C(=O)O` [Compound 442] the EC50 was 1160 nM. `Cc1cc2nc(-c3ccnc(-c4ccc5c(c4)c(C)nn5C)c3)sc2c(-c2ccc(Cl)cc2)c1[C@H](OC(C)(C)C)C(=O)O` [Compound 443] was tested, and the EC50 was 24 nM. Compound `CNc1nn(C)c2ccc(-c3nc4cc(C)c([C@H](OC(C)(C)C)C(=O)O)c(-c5ccc(Cl)cc5)c4s3)cc12` [Compound 444] has an EC50 of 10 nM. `CNc1nn(C)c2cc(-c3nc4cc(C)c([C@H](OC(C)(C)C)C(=O)O)c(-c5ccc(Cl)cc5)c4s3)ccc12` [Compound 445] gave an EC50 of 5 nM. `Cc1cc2nc(-c3ccc4c(c3)OCCO4)sc2c(-c2ccc(Cl)cc2)c1[C@H](OC(C)(C)C)C(=O)O` [Compound 446] gave an EC50 of 173 nM. For `Cc1cc2nc(-c3ccnc(-n4ccc5ncccc5c4=O)c3)sc2c(-c2ccc(Cl)cc2)c1[C@H](OC(C)(C)C)C(=O)O` [Compound 447], the EC50 was 5 nM. In the case of `Cc1cc2nc(-c3ccnc(-c4ccc5ccn(C)c(=O)c5c4)c3)sc2c(-c2ccc(Cl)cc2)c1[C@H](OC(C)(C)C)C(=O)O` [Compound 448], the EC50 is reported as 9 nM. In the case of `Cc1cc2nc(-c3ccnc(-c4ccc5cc[nH]c(=O)c5c4)c3)sc2c(-c2ccc(Cl)cc2)c1[C@H](OC(C)(C)C)C(=O)O` [Compound 449], the EC50 is reported as 30 nM. With `Cc1cc2nc(-n3ccc4cnccc4c3=O)sc2c(-c2ccc(Cl)cc2)c1[C@H](OC(C)(C)C)C(=O)O` [Compound 450] the EC50 was 25 nM. Compound `COc1ccc2ccc(-c3cc(-c4nc5cc(C)c([C@H](OC(C)(C)C)C(=O)O)c(-c6ccc(Cl)cc6)c5s4)ccn3)cc2n1` [Compound 451] has an EC50 of 86 nM. With `Cc1cc2nc(-c3ccnc(-c4ccc5ccc(=O)n(C)c5c4)c3)sc2c(-c2ccc(Cl)cc2)c1[C@H](OC(C)(C)C)C(=O)O` [Compound 452] the EC50 was 16 nM. `Cc1cc2nc(-c3ccnc(-c4ccc5ccc(=O)[nH]c5c4)c3)sc2c(-c2ccc(Cl)cc2)c1[C@H](OC(C)(C)C)C(=O)O` [Compound 453] showed an EC50 of 36 nM. In the case of `Cc1cc2nc(-c3ccnc(-c4cnc5c(c4)n(C)c(=O)n5C)c3)sc2c(-c2ccc(Cl)cc2)c1[C@H](OC(C)(C)C)C(=O)O` [Compound 454], the EC50 is reported as 18 nM. `Cc1cc2nc(-c3ccc4c(c3)c(=O)n(C)n4C)sc2c(-c2ccc(Cl)cc2)c1[C@H](OC(C)(C)C)C(=O)O` [Compound 455] showed an EC50 of 17 nM. `Cc1cc2nc(-c3ccnc(N4CC5CCCCN5C4=O)c3)sc2c(-c2ccc(Cl)cc2)c1[C@H](OC(C)(C)C)C(=O)O` (some centres unmarked) [Compound 456] showed an EC50 of 20 nM. Compound `COc1ccc2cc(-c3cc(-c4nc5cc(C)c([C@H](OC(C)(C)C)C(=O)O)c(-c6ccc(Cl)cc6)c5s4)ccn3)ccc2n1` [Compound 457] has an EC50 of 96 nM. `Cc1cc2nc(-c3ccnc(-n4ccc5ccncc5c4=O)c3)sc2c(-c2ccc(Cl)cc2)c1[C@H](OC(C)(C)C)C(=O)O` [Compound 458] gave an EC50 of 5 nM. `Cc1cc2nc(-c3ccnc(-c4ccc5[nH]c(=O)ccc5c4)c3)sc2c(-c2ccc(Cl)cc2)c1[C@H](OC(C)(C)C)C(=O)O` [Compound 459] was tested, and the EC50 was 28 nM. In the case of `Cc1cc2nc(-c3ccnc(-n4ccn5cccc5c4=O)c3)sc2c(-c2ccc(Cl)cc2)c1[C@H](OC(C)(C)C)C(=O)O` [Compound 460], the EC50 is reported as 31 nM. In the case of `Cc1cc2nc(-c3ccnc(-c4ccc5c(c4)c(=O)n(C)n5C)c3)sc2c(-c2ccc(Cl)cc2)c1[C@H](OC(C)(C)C)C(=O)O` [Compound 461], the EC50 is reported as 14 nM. `Cc1cc2nc(-c3ccnc(-n4ccc5ccccc5c4=O)c3)sc2c(-c2ccc(Cl)cc2)c1[C@H](OC(C)(C)C)C(=O)O` [Compound 462] showed an EC50 of 42 nM. `Cc1cc2nc(-c3ccnc(-c4ccc5c(c4)[nH]c(=O)n5C)c3)sc2c(-c2ccc(Cl)cc2)c1[C@H](OC(C)(C)C)C(=O)O` [Compound 463] showed an EC50 of 52 nM. `CCC(CC)N1CCN(c2nccc(-c3nc4cc(C)c([C@H](OC(C)(C)C)C(=O)O)c(-c5ccc(Cl)cc5)c4s3)n2)CC1` [Compound 464, (S)-2-tert-butoxy-2-(7-(4-chlorophenyl)-5-methyl-2-(2-(4-(pentan-3-yl)piperazin-1-yl)pyrimidin-4-yl)benzo[d]thiazol-6-yl)acetic acid] gave an EC50 of 12 nM. With `Cc1cc2nc(-c3ccnc(N4CCN(C(C)(C)C)CC4)n3)sc2c(-c2ccc(Cl)cc2)c1[C@H](OC(C)(C)C)C(=O)O` [Compound 465, (S)-2-tert-butoxy-2-(2-(2-(4-tert-butylpiperazin-1-yl)pyrimidin-4-yl)-7-(4-chlorophenyl)-5-methylbenzo[d]thiazol-6-yl)acetic acid] the EC50 was 2 nM.
